Assay results reported in patent publication US11690824B2, “Antibacterial compounds” (THE GENERAL HOSPITAL CORPORATION, priority 2018, dated 2023).
Values after ≈ are worked out from the molar mass of the structure shown. Like-named read-outs stand apart in the source and are kept apart here. Blank lines part the entries; values can stand above or below the compound they belong to.

Key:
S. aureus (MRSA) MW2 = assay: Minimal inhibitory concentration (MIC) assay, micro-dilution; type: cell-based; settings: for antibiotic activity / potency relative to nTZDpa: growing S. aureus cells
Description: (§1) Bacterial strains, growth conditions, and persister isolation. Methicillin-resistant S. aureus strains, MW2 BAA-1707, ATCC 33591, and JE2, methicillin-susceptible S. aureus strains, NCTC 8325, Newman, and ATCC 29213, vancomycin-resistant S. aureus strain, VRS1, Enterococcus faecium E007, vancomycin-resistant E. faecium strains, C68,^7 WB312, and WC196, Klebsiella pneumoniae WGLW2 (BEI Resources, Manassas, Va., USA), Acinetobacter baumannii ATCC 17978, Pseudomonas aeruginosa PA14, and Enterobacter aerogenes ATCC 13048 were used to test antimicrobial activity (Table 1). S. aureus strains were grown in tryptic soy broth (TSB) (BD, Franklin Lakes, N.J., USA), and E. faecium was grown in brain-heart infusion (BHI) broth (BD, Franklin Lakes, N.J., USA) at 37° C. K. pneumoniae, A. baumannii, P. aeruginosa, and E. aerogenes were grown in Luria Bertani (LB) broth (BD, Franklin Lakes, N.J., USA) at 37° C.
(§2) Minimal inhibitory concentration (MIC) assay. The MICS of antibiotics were determined by the standard micro-dilution method recommended by the Clinical and Laboratory Standards Institute. MIC assays were conducted in biological triplicate.

human erythrocytes = assay: Human blood hemolysis; type: cell-based; settings: human erythrocytes
Method: Human blood hemolysis. Hemolytic activity was evaluated as described in a previous study. Briefly, 100 μL of 4% human erythrocytes (Rockland Immunochemicals, Limerick, Pa., USA) was added to 100 μL of 2-fold serial dilutions of compounds in PBS, 0.2% DMSO (negative control), or 2% Triton-X 100 (positive control) in a 96-well plate. The 96-well plate was incubated at 37° C. for 1 h and then centrifuged at 500× g for 5 min. 50 μL of the supernatant was transferred to a fresh 96-well plate, and absorbance of supernatants was measured at 540 nm. Percent hemolysis was calculated using the following equation: (A540 nm of compound treated sample−A540 nm of 0.1% DMSO treated sample)/(A540 nm of 1% Triton X-100 treated sample−A540 nm of 0.1% DMSO treated sample)×100. HC50 (concentration of a compound causing 50% hemolysis) was determined using SigmaPlot 10.0 (Systat Software Inc., San Jose, Calif., USA).

[1] = tested on: MRSA MW2 persisters (stationary phase); assay: Persister killing assay; type: cell-based, S. aureus; settings: 64 μg/mL
Method: Persister killing assay. […] Persister cells of MRSA MW2 were prepared by growing cultures overnight to stationary phase at 37° C. at 200 rpm and washing 3 times with PBS. 1 mL of ˜2×10^8 CFU/mL MRSA persisters was added to 1 mL of PBS containing 2-fold of the desired concentration of antibiotics in a 96-well assay block (Corning Costar 3960). The assay block was incubated at 37° C., with shaking at 200 rpm. At specific times, […] were removed, washed once with PBS, serially diluted and spot-plated on TSA plates. Colonies were counted to enumerate the number of live cells after overnight incubation at 37° C. These experiments were conducted in biological triplicate.

MRSA MW2 = assay: Antibiotic synergy test (checkerboard); type: cell-based, S. aureus; settings: nTZDpa in combination with the named antibiotic, synergy if FICI ≤ 0.5
Method: Antibiotic synergy test. Antibiotic synergism was evaluated by the checkerboard method. Briefly, 2-fold serial dilutions of nTZDpa were combined with 2-fold serial dilutions of each other antibiotic, which created an 8×8 matrix in a 96-well microtiter plate. The fractional inhibitory concentration index (FICI) was calculated as follows: FICI=MIC of compound A in combination/MIC of compound A alone+MIC of compound B in combination/MIC of compound B alone. The interaction between two compounds was defined, as follows: synergy if FICI≤0.5, no interaction if 0.5<FICI≤4, and antagonism if FICI>4.

E. aerogenes ATCC 13048 = assay: MIC assay; type: cell-based, Enterobacter aerogenes; settings: E. aerogenes ATCC 13048
Description: as §1, §2

P. aeruginosa PA14 = assay: MIC assay; type: cell-based, Pseudomonas aeruginosa; settings: P. aeruginosa PA14
Description: as §1, §2

S. aureus VRS1 = assay: MIC assay; type: cell-based; settings: S. aureus VRS1
Description: as §1, §2

S. aureus Newman = assay: MIC assay; type: cell-based; settings: S. aureus Newman
Description: as §1, §2

S. aureus NCTC 8325 = assay: MIC assay; type: cell-based; settings: S. aureus NCTC 8325
Description: as §1, §2

S. aureus ATCC 29213 = assay: MIC assay; type: cell-based; settings: S. aureus ATCC 29213
Description: as §1, §2

S. aureus JE2 = assay: MIC assay; type: cell-based; settings: S. aureus JE2
Description: as §1, §2

S. aureus ATCC 33591 = assay: MIC assay; type: cell-based; settings: S. aureus ATCC 33591
Description: as §1, §2

A. baumannii ATCC 17978 = assay: MIC assay; type: cell-based, Acinetobacter baumannii; settings: A. baumannii ATCC 17978
Description: as §1, §2

E. faecium WC196 = assay: MIC assay; type: cell-based, Enterococcus faecium; settings: E. faecium WC196
Description: as §1, §2

E. faecium WB312 = assay: MIC assay; type: cell-based, Enterococcus faecium; settings: E. faecium WB312
Description: as §1, §2

E. faecium C68 = assay: MIC assay; type: cell-based, Enterococcus faecium; settings: E. faecium C68
Description: as §1, §2

E.faecium E007 = assay: MIC assay; type: cell-based, Enterococcus faecium; settings: E.faecium E007
Description: as §1, §2

K. pneumoniae WGLW2 = assay: MIC assay; type: cell-based, Klebsiella pneumoniae; settings: K. pneumoniae WGLW2
Description: as §1, §2

[2] = Staphylococcus aureus, Example 5, MRSA MW2, read-out: MIC
[3] = Staphylococcus aureus, Table 3, growing MRSA, read-out: MIC
[4] = Staphylococcus aureus, MRSA, PPARγ agonists, read-out: MICS against S. aureus MW2

SMILES: O=C(O)c1c(Sc2ccccc2)c2cc(Cl)ccc2n1Cc1cccc(Cl)c1 [Analog 2b, 5-chloro-1-(3-chlorobenzyl)-3-(phenylthio)-1H-indole-2-carboxylic acid]
MIC (S. aureus (MRSA) MW2; Example 5, MRSA MW2): same MIC

SMILES: Cn1c(C(=O)O)c(Sc2ccccc2)c2cc(Cl)ccc21 [Analog 5, 5-chloro-1-methyl-3-(phenylthio)-1H-indole-2-carboxylic acid]
MIC (S. aureus (MRSA) MW2; [2]): 64 mg/L (≈ 201 µM)

SMILES: O=C(O)c1c(Sc2ccc(Cl)cc2)c2cc(Cl)ccc2n1Cc1ccc(Cl)cc1 [Compound 4, 5-chloro-1-(4-chlorobenzyl)-3-((4-chlorophenyl)thio)-1H-indole-2-carboxylic acid]
HC50: median hemolytic concentration (human erythrocytes): 34 µg/mL | MIC (S. aureus (MRSA) MW2; [3]): 2 mg/L (≈ 4.32 µM)

SMILES: CC(C)(C)c1ccc(Sc2c(C(=O)O)n(Cc3ccc(Cl)cc3)c3ccc(Cl)cc23)cc1 [Compound 5, 3-((4-(tert-butyl)phenyl)thio)-5-chloro-1-(4-chlorobenzyl)-1H-indole-2-carboxylic acid]
HC50: median hemolytic concentration (human erythrocytes): 26 µg/mL | MIC (S. aureus (MRSA) MW2; [3]): 2 mg/L (≈ 4.13 µM)

SMILES: O=C(O)c1c(Cc2ccccc2)c2cc(Cl)ccc2n1Cc1ccc(Cl)cc1 [Compound S12, 3-benzyl-5-chloro-1-(4-chlorobenzyl)-1H-indole-2-carboxylic acid]
antibiotic activity / potency relative to nTZDpa (S. aureus (MRSA) MW2): less potency

SMILES: OCc1c(Oc2ccccc2)c2cc(Cl)ccc2n1Cc1ccc(Cl)cc1 [Compound S13, (5-chloro-1-(4-chlorobenzyl)-3-phenoxy-1H-indol-2-yl)methanol]
antibiotic activity / potency relative to nTZDpa (S. aureus (MRSA) MW2): reduction of antibiotic activity

SMILES: NC[C@H]1O[C@H](O[C@H]2[C@H](O)[C@@H](O[C@H]3O[C@H](CO)[C@@H](O)[C@H](N)[C@H]3O)[C@H](N)C[C@@H]2N)[C@H](O)[C@@H](O)[C@@H]1O [Kanamycin, kanamysin]
FICI (fractional inhibitory concentration index) (MRSA MW2): 0.5

SMILES: Cc1onc(-c2ccccc2)c1C(=O)N[C@@H]1C(=O)N2[C@@H]1SC(C)(C)[C@@H]2C(=O)O [Oxa, oxacillin]
Minimum inhibitory concentration (E. aerogenes ATCC 13048): >64 mg/L | Minimum inhibitory concentration (P. aeruginosa PA14): >64 mg/L | Minimum inhibitory concentration (S. aureus VRS1): >64 mg/L | Minimum inhibitory concentration (S. aureus Newman): 0.5 mg/L (≈ 1.25 µM) | Minimum inhibitory concentration (S. aureus NCTC 8325): 0.5 mg/L (≈ 1.25 µM) | Minimum inhibitory concentration (S. aureus ATCC 29213): 0.5 mg/L (≈ 1.25 µM) | Minimum inhibitory concentration (S. aureus JE2): 64 mg/L (≈ 159 µM) | Minimum inhibitory concentration (S. aureus ATCC 33591): >64 mg/L | Minimum inhibitory concentration (A. baumannii ATCC 17978): >64 mg/L | Minimum inhibitory concentration (E. faecium WC196): >64 mg/L | Minimum inhibitory concentration (E. faecium WB312): >64 mg/L | Minimum inhibitory concentration (E. faecium C68): >64 mg/L | Minimum inhibitory concentration (E.faecium E007): >64 mg/L | Minimum inhibitory concentration (S. aureus (MRSA) MW2; S. aureus (MRSA) MW2): 64 mg/L (≈ 159 µM) | Minimum inhibitory concentration (K. pneumoniae WGLW2): >64 mg/L

SMILES: CO[C@H]1/C=C/O[C@@]2(C)Oc3c(C)c(O)c4c(O)c(c(/C=N/N5CCN(C)CC5)c(O)c4c3C2=O)NC(=O)/C(C)=C\C=C\[C@H](C)[C@H](O)[C@@H](C)[C@@H](O)[C@@H](C)[C@H](OC(C)=O)[C@@H]1C [Rifampicin, rifampicin]
FICI (fractional inhibitory concentration index) (MRSA MW2): 1

SMILES: [H]/N=C(/N)N[C@H]1[C@H](O)[C@@H](O)[C@H](O[C@@H]2O[C@@H](C)[C@](O)(C=O)[C@H]2O[C@@H]2O[C@@H](CO)[C@H](O)[C@@H](O)[C@@H]2NC)[C@@H](N/C(N)=N\[H])[C@@H]1O [Streptomycin, streptomycin]
FICI (fractional inhibitory concentration index) (MRSA MW2): 0.37

SMILES: CN(C)[C@@H]1C(O)=C(C(N)=O)C(=O)[C@@]2(O)C(O)=C3C(=O)c4c(O)cccc4[C@@](C)(O)[C@H]3C[C@@H]12 [Tetracycline, tetracycline]
FICI (fractional inhibitory concentration index) (MRSA MW2): 1.125

SMILES: NC[C@H]1O[C@H](O[C@H]2[C@H](O)[C@@H](O[C@H]3O[C@H](CO)[C@@H](O)[C@H](N)[C@H]3O)[C@H](N)C[C@@H]2N)[C@H](N)C[C@@H]1O [Tobramycin, tobaramysin]
FICI (fractional inhibitory concentration index) (MRSA MW2): 0.31

Further lines, with some results ahead:

MIC (S. aureus (MRSA) MW2; [3]): 4 mg/L (≈ 9.7 µM)
SMILES: O=C(O)c1c(Oc2ccccc2)c2cc(Cl)ccc2n1Cc1ccc(Cl)cc1 [Compound 6, 5-chloro-1-(4-chlorobenzyl)-3-phenoxy-1H-indole-2-carboxylic acid]
HC50: median hemolytic concentration (human erythrocytes): >64 µg/mL | antibiotic activity / potency relative to nTZDpa (S. aureus (MRSA) MW2): equipotent with nTZDpa | decrease in viability of persisters [1]: 3 log

MIC (S. aureus (MRSA) MW2; [3]): 2 mg/L (≈ 4.48 µM)
SMILES: O=C(O)c1c(Oc2ccccc2)c2cc(Cl)ccc2n1Cc1ccc(Cl)c(Cl)c1 [Compound 10, 5-chloro-1-(3,4-dichlorobenzyl)-3-phenoxy-1H-indole-2-carboxylic acid]
HC50: median hemolytic concentration (human erythrocytes): >64 µg/mL

MIC (S. aureus (MRSA) MW2; [3]): 2 mg/L (≈ 4.48 µM)
SMILES: O=C(O)c1c(Oc2ccc(Cl)cc2)c2cc(Cl)ccc2n1Cc1ccc(Cl)cc1 [Compound 11, 5-chloro-1-(4-chlorobenzyl)-3-(4-chlorophenoxy)-1H-indole-2-carboxylic acid]
HC50: median hemolytic concentration (human erythrocytes): >64 µg/mL

MIC (S. aureus (MRSA) MW2; [3]): 1 mg/L (≈ 2.08 µM)
SMILES: O=C(O)c1c(Oc2ccc(Cl)c(Cl)c2)c2cc(Cl)ccc2n1Cc1ccc(Cl)cc1 [Compound 12, 5-chloro-1-(4-chlorobenzyl)-3-(3,4-dichlorophenoxy)-1H-indole-2-carboxylic acid]
HC50: median hemolytic concentration (human erythrocytes): 38 µg/mL

MIC (S. aureus (MRSA) MW2; [3]): 2 mg/L (≈ 4.07 µM)
SMILES: O=C(O)c1c(Oc2ccc(Br)cc2)c2cc(Cl)ccc2n1Cc1ccc(Cl)cc1 [Compound 13, 3-(4-bromophenoxy)-5-chloro-1-(4-chlorobenzyl)-1H-indole-2-carboxylic acid]
HC50: median hemolytic concentration (human erythrocytes): >64 µg/mL

MIC (S. aureus (MRSA) MW2; [3]): 1 mg/L (≈ 1.86 µM)
SMILES: O=C(O)c1c(Oc2ccc(I)cc2)c2cc(Cl)ccc2n1Cc1ccc(Cl)cc1 [Compound 14, 5-chloro-1-(4-chlorobenzyl)-3-(4-iodophenoxy)-1H-indole-2-carboxylic acid]
HC50: median hemolytic concentration (human erythrocytes): >64 µg/mL

MIC (S. aureus (MRSA) MW2; [2]): 16 mg/L (≈ 40.6 µM)
SMILES: O=C(O)c1c(Sc2ccccc2)c2cc(Cl)ccc2n1Cc1ccccc1 [S4 (analog 2), 1-benzyl-5-chloro-3-(phenylthio)-1H-indole-2-carboxylic acid]

MIC (S. aureus (MRSA) MW2; [4]): > 64 mg/L
SMILES: CCc1ccc(CCOc2ccc(CC3SC(=O)NC3=O)cc2)nc1 (stereo not drawn) [pioglitazone, reference compound]

MIC (S. aureus (MRSA) MW2; [4]): > 64 mg/L
SMILES: CN(CCOc1ccc(CC2SC(=O)NC2=O)cc1)c1ccccn1 (stereo not drawn) [rosiglitazone, reference compound]
